This is an account of results in patent US9718828B2 (MERCK SHARP & DOHME CORP., priority 2011, dated 2017).

Counter-ions that a name gives are not always drawn.

In the first assay the target is Btk enzyme (His-Btk) (Homo sapiens (Human), UniProt Q06187). The assay is described as follows: Btk enzyme activity, IMAP fluorescence polarization assay (Assay Method A).
Sequence of Btk enzyme (His-Btk) (Q06187 whole entry): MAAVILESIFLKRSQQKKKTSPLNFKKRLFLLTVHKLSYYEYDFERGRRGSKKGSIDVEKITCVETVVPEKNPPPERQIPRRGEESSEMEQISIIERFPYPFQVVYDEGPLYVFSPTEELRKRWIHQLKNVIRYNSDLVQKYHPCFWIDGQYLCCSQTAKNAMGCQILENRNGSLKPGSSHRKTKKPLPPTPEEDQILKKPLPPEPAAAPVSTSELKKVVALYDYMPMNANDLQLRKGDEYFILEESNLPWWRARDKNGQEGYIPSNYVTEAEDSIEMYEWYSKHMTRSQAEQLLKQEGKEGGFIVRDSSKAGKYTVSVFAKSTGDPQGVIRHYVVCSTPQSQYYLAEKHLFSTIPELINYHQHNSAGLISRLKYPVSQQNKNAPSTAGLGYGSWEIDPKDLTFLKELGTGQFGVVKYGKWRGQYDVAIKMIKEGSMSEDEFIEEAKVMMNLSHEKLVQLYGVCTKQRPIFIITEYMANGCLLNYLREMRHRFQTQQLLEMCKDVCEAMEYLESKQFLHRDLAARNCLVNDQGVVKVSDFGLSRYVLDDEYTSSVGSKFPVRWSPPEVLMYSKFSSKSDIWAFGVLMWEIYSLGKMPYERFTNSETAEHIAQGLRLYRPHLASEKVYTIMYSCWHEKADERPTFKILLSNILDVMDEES
Conditions: not given
In general terms: Polarisation of emitted light reports the rotation of a fluorescent probe.
Take `CSCCC(=O)N1C[C@H](c2nc(-c3ccc(C(=O)Nc4cc(C(F)(F)F)ccn4)cc3)c3c(N)nccn23)CC[C@H]1C` (relative stereo) [Example 187, 4-(8-amino-3-((trans)-6-methyl-1-(3-(methylthio)propanoyl)piperidin-3-yl)imidazo[1,5-a]pyrazin-1-yl)-N-(4-(trifluoromethyl)pyridin-2-yl)benzamide, TFA salt]: the EC50 (in general, the concentration needed to bring the measured effect to its halfway point) was 10 to 100 nM.

`C[C@@H]1CC[C@@H](c2nc(-c3ccc(C(=O)Nc4cc(C(F)(F)F)ccn4)cc3)c3c(N)nccn23)CN1C(=O)C1CC1` (relative stereo) [Example 188, 4-(8-amino-3-((trans)-1-(cyclopropanecarbonyl)-6-methylpiperidin-3-yl)imidazo[1,5-a]pyrazin-1-yl)-N-(4-(trifluoromethyl)pyridin-2-yl)benzamide, TFA salt] had a 50% effective concentration (EC50) of 10 to 100 nM.

`CCC(=O)N1CCC[C@@H](c2nc(-c3ccc(C(=O)Nc4nc5c(s4)CC(C)CC5)cc3)c3c(N)nccn23)C1` (stereo in doubt) [Example 65, (R)-4-(8-amino-3-(1-propionylpiperidin-3-yl)imidazo[1,5-a]pyrazin-1-yl)-N-(6-methyl-4,5,6,7-tetrahydrobenzo[d]thiazol-2-yl)benzamide] displayed an EC50 of less than 10 nM.

`Nc1nccn2c1c(-c1ccc(C(=O)Nc3ccccn3)cc1)nc2[C@H]1CC[C@H](O)CC1` [Example 1, 4-(8-amino-3-((trans)-4-hydroxycyclohexyl)imidazo[1,5-a]pyrazin-1-yl)-N-(pyridin-2-yl)benzamide] returned an EC50 of 10 to 100 nM.

Still in this assay, the particulars now being: read-out: EC50 Btk activity values - Assay Method A; IMAP-FP, 60 min pre-incubation, 5 μM ATP; class 100-1000 is given as ≧100 nM-<1 μM.
Consider `CCOCCC(=O)N1C[C@H](c2nc(-c3ccc(C(=O)Nc4cc(C(F)(F)F)ccn4)cc3)c3c(N)nccn23)CC[C@@H]1C` (relative stereo) [Example 189, 4-(8-amino-3-((cis)-1-(3-ethoxypropanoyl)-6-methylpiperidin-3-yl)imidazo[1,5-a]pyrazin-1-yl)-N-(4-(trifluoromethyl)pyridin-2-yl)benzamide, TFA salt], for which the EC50 is less than 10 nM.

Turning to `C[C@H]1CC[C@@H](c2nc(-c3ccc(C(=O)Nc4cc(C(F)(F)F)ccn4)cc3)c3c(N)nccn23)CN1C(=O)C1CCC1(F)F` (relative stereo) [Example 190, 4-(8-amino-3-((cis)-1-(2,2-difluorocyclobutanecarbonyl)-6-methylpiperidin-3-yl)imidazo[1,5-a]pyrazin-1-yl)-N-(4-(trifluoromethyl)pyridin-2-yl)benzamide, TFA salt], the EC50 is less than 10 nM.

For the compound `C[C@H]1CC[C@@H](c2nc(-c3ccc(C(=O)Nc4ccccn4)cc3)c3c(N)nccn23)CN1C(=O)CC1CC1` (relative stereo) [Example 191, 4-(8-amino-3-((cis)-1-(2-cyclopropylacetyl)-6-methylpiperidin-3-yl)imidazo[1,5-a]pyrazin-1-yl)-N-(pyridin-2-yl)benzamide, TFA salt], the EC50 was less than 10 nM.

Consider `C[C@H]1CC[C@@H](c2nc(-c3ccc(C(=O)Nc4ccccn4)cc3)c3c(N)nccn23)CN1C(=O)C1CC1` (relative stereo) [Example 192, 4-(8-amino-3-((cis)-1-(cyclopropanecarbonyl)-6-methylpiperidin-3-yl)imidazo[1,5-a]pyrazin-1-yl)-N-(pyridin-2-yl)benzamide, TFA salt], for which the EC50 was less than 10 nM.

Take `CCNC(=O)N1C[C@H](c2nc(-c3ccc(C(=O)Nc4ccccn4)cc3)c3c(N)nccn23)CC[C@@H]1C` (relative stereo) [Example 193, (cis)-5-(8-amino-1-(4-(pyridin-2-ylcarbamoyl)phenyl)imidazo [1,5-a]pyrazin-3-yl)-N-ethyl-2-methylpiperidine-1-carboxamide, TFA salt]: the EC50 is less than 10 nM.

Regarding `C[C@H]1CC[C@@H](c2nc(-c3ccc(C(=O)Nc4cc(C(F)(F)F)ccn4)cc3)c3c(N)nccn23)CN1C(=O)C1CCCO1` (relative stereo) [Example 194, 4-(8-amino-3-((cis)-6-methyl-1-(tetrahydrofuran-2-carbonyl)piperidin-3-yl)imidazo[1,5-a]pyrazin-1-yl)-N-(4-(trifluoromethyl)pyridin-2-yl)benzamide, TFA salt], the EC50 is less than 10 nM.

As for `CSCCC(=O)N1C[C@H](c2nc(-c3ccc(C(=O)Nc4cc(C(F)(F)F)ccn4)cc3)c3c(N)nccn23)CC[C@@H]1C` (relative stereo) [Example 195, 4-(8-amino-3-((cis)-6-methyl-1-(3-(methylthio)propanoyl)piperidin-3-yl)imidazo[1,5-a]pyrazin-1-yl)-N-(4-(trifluoromethyl)pyridin-2-yl)benzamide, TFA salt], the EC50 is less than 10 nM.

Regarding `C[C@H]1CC[C@@H](c2nc(-c3ccc(C(=O)Nc4cc(C5CC5)ccn4)cc3)c3c(N)nccn23)CN1C(=O)CN1CCOC1=O` (relative stereo) [Example 196, 4-(8-amino-3-((cis)-6-methyl-1-(2-(2-oxooxazolidin-3-yl)acetyl)piperidin-3-yl)imidazo[1,5-a]pyrazin-1-yl)-N-(4-cyclopropylpyridin-2-yl)benzamide, TFA salt], the 50% effective concentration (EC50) was less than 10 nM.

For `C[C@H]1CC[C@@H](c2nc(-c3ccc(C(=O)Nc4cc(C5CC5)ccn4)cc3)c3c(N)nccn23)CN1C(=O)C1CCC1` (relative stereo) [Example 197, 4-(8-amino-3-((cis)-1-(cyclobutanecarbonyl)-6-methylpiperidin-3-yl)imidazo[1,5-a]pyrazin-1-yl)-N-(4-cyclopropylpyridin-2-yl)benzamide, TFA salt], the EC50 was less than 10 nM.

For the compound `CSCCC(=O)N1C[C@H](c2nc(-c3ccc(C(=O)Nc4cc(C5CC5)ccn4)cc3)c3c(N)nccn23)CC[C@@H]1C` (relative stereo) [Example 198, 4-(8-amino-3-((cis)-6-methyl-1-(3-(methylthio)propanoyl)-piperidin-3-yl)imidazo[1,5-a]pyrazin-1-yl)-N-(4-cyclopropylpyridin-2-yl)benzamide, TFA salt], the EC50 was less than 10 nM.

In the case of `CCOC(=O)N1C[C@H](c2nc(-c3ccc(C(=O)Nc4cc(C5CC5)ccn4)cc3)c3c(N)nccn23)CC[C@@H]1C` (relative stereo) [Example 199, (cis)-ethyl 5-(8-amino-1-(4-(4-cyclopropylpyridin-2-ylcarbamoyl)phenyl)imidazo [1,5-a]pyrazin-3-yl)-2-methylpiperidine-1-carboxylate, TFA salt], the concentration giving a half-maximal response (EC50) is less than 10 nM.

`CCC(=O)C(=O)N1C[C@H](c2nc(-c3ccc(C(=O)Nc4cc(C(F)(F)F)ccn4)cc3)c3c(N)nccn23)CC[C@@H]1C` (relative stereo) [Example 200, 4-(8-amino-3-((cis)-6-methyl-1-(2-oxobutanoyl)piperidin-3-yl)imidazo[1,5-a]pyrazin-1-yl)-N-(4-(trifluoromethyl)-pyridin-2-yl)benzamide, TFA salt]: the concentration for a half-maximal effect (EC50) is less than 10 nM.

For the compound `CCNC(=O)N1C[C@H](c2nc(-c3ccc(C(=O)Nc4cc(C(F)(F)F)ccn4)cc3)c3c(N)nccn23)CC[C@@H]1C` (relative stereo) [Example 201, (cis)-5-(8-amino-1-(4-(4-(trifluoromethyl)pyridin-2-ylcarbamoyl)phenyl)imidazo [1,5-a]pyrazin-3-yl)-N-ethyl-2-methylpiperidine-1-carboxamide, TFA salt], the EC50 is less than 10 nM.

Take `C[C@H]1CC[C@@H](c2nc(-c3ccc(C(=O)Nc4cc(C(F)(F)F)ccn4)cc3)c3c(N)nccn23)CN1C(=O)C1CC1` (relative stereo) [Example 202, 4-(8-amino-3-((cis)-1-(cyclopropanecarbonyl)-6-methylpiperidin-3-yl)imidazo[1,5-a]pyrazin-1-yl)-N-(4-(trifluoromethyl)pyridin-2-yl)benzamide, TFA salt]: the 50% effective concentration (EC50) was less than 10 nM.

On to `C[C@H]1CC[C@@H](c2nc(-c3ccc(C(=O)Nc4ccccn4)cc3)c3c(N)nccn23)CN1C(=O)C1CC(F)(F)C1` (relative stereo) [Example 203, 4-(8-amino-3-((cis)-1-(3,3-difluorocyclobutanecarbonyl)-6-methylpiperidin-3-yl)imidazo[1,5-a]pyrazin-1-yl)-N-(pyridin-2-yl)benzamide, TFA salt], for which the 50% effective concentration (EC50) is less than 10 nM.

Regarding `C[C@H]1CC[C@@H](c2nc(-c3ccc(C(=O)Nc4ccccn4)cc3)c3c(N)nccn23)CN1C(=O)C1CCC1` (relative stereo) [Example 204, 4-(8-amino-3-((cis)-1-(cyclobutanecarbonyl)-6-methylpiperidin-3-yl)imidazo[1,5-a]pyrazin-1-yl)-N-(pyridin-2-yl)benzamide, TFA salt], the 50% effective concentration (EC50) is less than 10 nM.

On to `CC(C)C(=O)N1C[C@H](c2nc(-c3ccc(C(=O)Nc4ccccn4)cc3)c3c(N)nccn23)CC[C@@H]1C` (relative stereo) [Example 205, 4-(8-amino-3-((cis)-1-isobutyryl-6-methylpiperidin-3-yl)imidazo[1,5-a]pyrazin-1-yl)-N-(pyridin-2-yl)benzamide, TFA salt], for which the concentration for a half-maximal effect (EC50) was less than 10 nM.

As to `CCOCCC(=O)N1C[C@H](c2nc(-c3ccc(C(=O)Nc4ccccn4)cc3)c3c(N)nccn23)CC[C@@H]1C` (relative stereo) [Example 206, 4-(8-amino-3-((cis)-1-(3-ethoxypropanoyl)-6-methylpiperidin-3-yl)imidazo[1,5-a]pyrazin-1-yl)-N-(pyridin-2-yl)benzamide, TFA salt], the EC50 is less than 10 nM.

For `CCC(=O)N1C[C@H](c2nc(-c3ccc(C(=O)Nc4ccccn4)cc3)c3c(N)nccn23)CC[C@@H]1C` (relative stereo) [Example 207, 4-(8-amino-3-((cis)-6-methyl-1-propionylpiperidin-3-yl)imidazo[1,5-a]pyrazin-1-yl)-N-(pyridin-2-yl)benzamide, TFA salt], the EC50 is less than 10 nM.

With `Nc1nccn2c1c(-c1ccc(C(=O)Nc3cc(C(F)(F)F)ccn3)cc1)nc2[C@H]1CC[C@H](O)CC1` [Example 2, 4-(8-amino-3-((trans)-4-hydroxycyclohexyl)imidazo[1,5-a]pyrazin-1-yl)-N-(4-(trifluoromethyl)pyridin-2-yl)benzamide], the concentration for a half-maximal effect (EC50) is less than 10 nM.
